# Tests used:
# Rattus norvegicus [1] = species: Rattus norvegicus; assay: Compound was evaluated for its ability to inhibit high-affinity uptake of [3H]dopamine into striatal nerve endings of rat; type: functional
# Rattus norvegicus [2] = species: Rattus norvegicus; assay: Compound was evaluated for its ability to displace [3H]-mazindol binding from rat striatal membranes
# [3] = target: Sodium-dependent dopamine transporter (Rattus norvegicus, UniProt P23977); assay: Compound was evaluated for its ability to displace [3H]mazindol binding from rat striatal membranes
# Sodium-dependent dopamine transporter, sequence (P23977 whole entry): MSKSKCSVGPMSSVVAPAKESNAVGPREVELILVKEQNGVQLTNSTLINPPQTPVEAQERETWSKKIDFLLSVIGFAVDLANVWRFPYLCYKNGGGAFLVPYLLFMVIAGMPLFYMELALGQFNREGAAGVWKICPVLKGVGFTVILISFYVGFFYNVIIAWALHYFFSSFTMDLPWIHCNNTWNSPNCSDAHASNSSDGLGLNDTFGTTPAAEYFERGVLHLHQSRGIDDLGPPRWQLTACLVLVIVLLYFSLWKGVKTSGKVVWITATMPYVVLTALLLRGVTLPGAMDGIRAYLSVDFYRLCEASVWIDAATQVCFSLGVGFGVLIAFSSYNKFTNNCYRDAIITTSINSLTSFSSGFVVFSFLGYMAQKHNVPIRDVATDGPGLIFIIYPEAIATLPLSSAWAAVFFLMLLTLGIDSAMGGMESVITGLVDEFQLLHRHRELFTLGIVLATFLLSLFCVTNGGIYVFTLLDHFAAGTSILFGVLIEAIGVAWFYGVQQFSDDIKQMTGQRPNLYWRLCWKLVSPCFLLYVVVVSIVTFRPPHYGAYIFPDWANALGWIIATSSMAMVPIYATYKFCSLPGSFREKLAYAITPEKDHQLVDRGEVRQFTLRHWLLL
# Rattus norvegicus [4] = assay: Number of animals(n) completing 20 responses on either lever out of the number of animals tested (N) at dose 0.1 mg/kg evaluated by dose-response tests in trained rats(post injection interval 30 min); n/N=7/7; type: functional
# Rattus norvegicus [5] = assay: Number of animals(n) completing 20 responses on either lever out of the number of animals tested (N) at dose 0.2 mg/kg evaluated by dose-response tests in trained rats(post injection interval 30 min); n/N=7/7; type: functional
# Rattus norvegicus [6] = assay: Mean responses per minute at dose 0.1 mg/kg evaluated by substitution tests in trained rats(post injection interval 240 min); type: functional
# Rattus norvegicus [7] = assay: Mean responses per minute at dose 0.1 mg/kg evaluated by substitution tests in trained rats(post injection interval 30 min); type: functional
# Rattus norvegicus [8] = assay: Mean responses per minute at dose 0.2 mg/kg evaluated by substitution tests in trained rats(post injection interval 120 min); type: functional
# Rattus norvegicus [9] = species: Rattus norvegicus; assay: Result of substitution tests in trained rats and expressed as effective dose(post injection interval 240 min); type: functional; details: 4 h
# Rattus norvegicus [10] = assay: Percent response at dose 0.1 mg/kg evaluated by substitution tests in trained rats(post injection interval 120 min); type: functional
# Rattus norvegicus [11] = assay: Mean responses per minute at dose 0.8 mg/kg evaluated by substitution tests in trained rats(post injection interval 240 min); type: functional
# Rattus norvegicus [12] = assay: Mean responses per minute at dose 0.4 mg/kg evaluated by substitution tests in trained rats(post injection interval 120 min); type: functional
# Rattus norvegicus [13] = assay: Percent response at dose 0.4 mg/kg evaluated by substitution tests in trained rats(post injection interval 240 min); type: functional
# Rattus norvegicus [14] = assay: Percent response at dose 0.8 mg/kg evaluated by substitution tests in trained rats(post injection interval 120 min); type: functional
# Rattus norvegicus [15] = assay: Number of animals(n) completing 20 responses on either lever out of the number of animals tested (N) at dose 0.8 mg/kg evaluated by dose-response tests in trained rats(post injection interval 30 min); n/N=7/7; type: functional
# Rattus norvegicus [16] = species: Rattus norvegicus; assay: Result of substitution tests in trained rats and expressed as effective dose(post injection interval 120 min); type: functional; details: 2 h
# Rattus norvegicus [17] = assay: Mean responses per minute at dose 0.05 mg/kg evaluated by substitution tests in trained rats(post injection interval 120 min); type: functional
# Rattus norvegicus [18] = assay: Number of animals(n) completing 20 responses on either lever out of the number of animals tested (N) at dose 0.1 mg/kg evaluated by dose-response tests in trained rats(post injection interval 240 min); n/N=7/7; type: functional
# Rattus norvegicus [19] = assay: Mean responses per minute at dose 0.4 mg/kg evaluated by substitution tests in trained rats(post injection interval 30 min); type: functional
# Rattus norvegicus [20] = assay: Percent response at dose 0.4 mg/kg evaluated by substitution tests in trained rats(post injection interval 120 min); type: functional
# Rattus norvegicus [21] = assay: Percent response at dose 0.05 mg/kg evaluated by substitution tests in trained rats(post injection interval 120 min); type: functional
# Rattus norvegicus [22] = assay: Percent response at dose 0.2 mg/kg evaluated by substitution tests in trained rats(post injection interval 240 min); type: functional
# Rattus norvegicus [23] = assay: Mean responses per minute at dose 0.2 mg/kg evaluated by substitution tests in trained rats(post injection interval 240 min); type: functional
# Rattus norvegicus [24] = assay: Number of animals(n) completing 20 responses on either lever out of the number of animals tested (N) at dose 0.2 mg/kg evaluated by dose-response tests in trained rats(post injection interval 240 min); n/N=7/7; type: functional
# Rattus norvegicus [25] = assay: Mean responses per minute at dose 0.1 mg/kg evaluated by substitution tests in trained rats(post injection interval 120 min); type: functional
# Rattus norvegicus [26] = assay: Number of animals(n) completing 20 responses on either lever out of the number of animals tested (N) at dose 0.4 mg/kg evaluated by dose-response tests in trained rats(post injection interval 240 min); n/N=4/5; type: functional
# Rattus norvegicus [27] = assay: Mean responses per minute at dose 0.4 mg/kg evaluated by substitution tests in trained rats(post injection interval 240 min); type: functional
# Rattus norvegicus [28] = assay: Number of animals(n) completing 20 responses on either lever out of the number of animals tested (N) at dose 0.8 mg/kg evaluated by dose-response tests in trained rats(post injection interval 240 min); n/N=3/7; type: functional
# Rattus norvegicus [29] = assay: Percent response at dose 0.05 mg/kg evaluated by substitution tests in trained rats(post injection interval 30 min); type: functional
# Rattus norvegicus [30] = assay: Percent response at dose 0.1 mg/kg evaluated by substitution tests in trained rats(post injection interval 30 min); type: functional
# Rattus norvegicus [31] = assay: Number of animals(n) completing 20 responses on either lever out of the number of animals tested (N) at dose 0.4 mg/kg evaluated by dose-response tests in trained rats(post injection interval 120 min); n/N=3/5; type: functional
# Rattus norvegicus [32] = assay: Percent response at dose 0.2 mg/kg evaluated by substitution tests in trained rats(post injection interval 30 min); type: functional
# Rattus norvegicus [33] = assay: Number of animals(n) completing 20 responses on either lever out of the number of animals tested (N) at dose 0.4 mg/kg evaluated by dose-response tests in trained rats(post injection interval 30 min); n/N=7/7; type: functional
# Rattus norvegicus [34] = assay: Percent response at dose 0.4 mg/kg evaluated by substitution tests in trained rats(post injection interval 30 min); type: functional
# Rattus norvegicus [35] = species: Rattus norvegicus; assay: Result of substitution tests in trained rats and expressed as effective dose(post injection interval 30 min); type: functional; details: 0.5 h
# Rattus norvegicus [36] = assay: Number of animals(n) completing 20 responses on either lever out of the number of animals tested (N) at dose 0.2 mg/kg evaluated by dose-response tests in trained rats(post injection interval 120 min); n/N=7/7; type: functional
# Rattus norvegicus [37] = assay: Mean responses per minute at dose 0.8 mg/kg evaluated by substitution tests in trained rats(post injection interval 120 min); type: functional
# Rattus norvegicus [38] = assay: Mean responses per minute at dose 0.05 mg/kg evaluated by substitution tests in trained rats(post injection interval 30 min); type: functional
# Rattus norvegicus [39] = assay: Number of animals(n) completing 20 responses on either lever out of the number of animals tested (N) at dose 0.1 mg/kg evaluated by dose-response tests in trained rats(post injection interval 120 min); n/N=7/7; type: functional
# Rattus norvegicus [40] = assay: Mean responses per minute at dose 0.8 mg/kg evaluated by substitution tests in trained rats(post injection interval 30 min); type: functional
# Rattus norvegicus [41] = assay: Number of animals(n) completing 20 responses on either lever out of the number of animals tested (N) at dose 0.05 mg/kg evaluated by dose-response tests in trained rats(post injection interval 240 min); n/N=7/7; type: functional
# Rattus norvegicus [42] = assay: Number of animals(n) completing 20 responses on either lever out of the number of animals tested (N) at dose 0.05 mg/kg evaluated by dose-response tests in trained rats(post injection interval 30 min); n/N=7/7; type: functional
# Rattus norvegicus [43] = assay: Percent response at dose 0.1 mg/kg evaluated by substitution tests in trained rats(post injection interval 240 min); type: functional
# Rattus norvegicus [44] = assay: Percent response at dose 0.05 mg/kg evaluated by substitution tests in trained rats(post injection interval 240 min); type: functional
# Rattus norvegicus [45] = assay: Number of animals(n) completing 20 responses on either lever out of the number of animals tested (N) at dose 0.8 mg/kg evaluated by dose-response tests in trained rats(post injection interval 120 min); n/N=1/7; type: functional
# Rattus norvegicus [46] = assay: Mean responses per minute at dose 0.2 mg/kg evaluated by substitution tests in trained rats(post injection interval 30 min); type: functional
# Rattus norvegicus [47] = assay: Percent response at dose 0.8 mg/kg evaluated by substitution tests in trained rats(post injection interval 30 min); type: functional
# Rattus norvegicus [48] = assay: Number of animals(n) completing 20 responses on either lever out of the number of animals tested (N) at dose 0.05 mg/kg evaluated by dose-response tests in trained rats(post injection interval 120 min); n/N=7/7; type: functional
# Rattus norvegicus [49] = assay: Percent response at dose 0.8 mg/kg evaluated by substitution tests in trained rats(post injection interval 240 min); type: functional
# Rattus norvegicus [50] = assay: Mean responses per minute at dose 0.05 mg/kg evaluated by substitution tests in trained rats(post injection interval 240 min); type: functional
# Rattus norvegicus [51] = assay: Percent response at dose 0.2 mg/kg evaluated by substitution tests in trained rats(post injection interval 120 min); type: functional
smiles,measurement,setting,value
COC(=O)C1C2CC[C@H](C[C@@H]1c1ccc(Cl)cc1)N2C (stereo partly specified),IC50,Rattus norvegicus [1],0.0032 µM
CN1C2CCC1[C@@H](/C=C/Cl)[C@@H](c1ccc(Cl)cc1)C2 (stereo partly specified),IC50,Rattus norvegicus [2],0.0007 µM
same,IC50,Rattus norvegicus [1],0.0013 µM
C=C[C@@H]1C2CC[C@H](C[C@@H]1OC(=O)c1ccccc1)N2C,IC50,[3],1.73 µM
same,IC50,Rattus norvegicus [1],1.12 µM
CN1C2CC[C@@H]1C[C@H](OC(=O)c1ccccc1)[C@@H]2/C=C/Cl,IC50,[3],0.222 µM
same,IC50,Rattus norvegicus [1],0.368 µM
C=C[C@@H]1C2CCC(C[C@@H]1c1ccc(Cl)cc1)N2C (stereo partly specified),No. resp animals / Total,Rattus norvegicus [4],4 / 5
same,No. resp animals / Total,Rattus norvegicus [5],7 / 7
same,Rate response,Rattus norvegicus [6],23.5 min⁻¹
same,Rate response,Rattus norvegicus [7],37.1 min⁻¹
same,Rate response,Rattus norvegicus [8],46.8 min⁻¹
same,ED50,Rattus norvegicus [9],0.09 mg/kg
same,Drug response,Rattus norvegicus [10],75%
same,Rate response,Rattus norvegicus [11],39.1 min⁻¹
same,Rate response,Rattus norvegicus [12],24.9 min⁻¹
same,Drug response,Rattus norvegicus [13],91%
same,Drug response,Rattus norvegicus [14],95%
same,No. resp animals / Total,Rattus norvegicus [15],7 / 7
same,ED50,Rattus norvegicus [16],0.08 mg/kg
same,Rate response,Rattus norvegicus [17],18.4 min⁻¹
same,No. resp animals / Total,Rattus norvegicus [18],7 / 7
same,Rate response,Rattus norvegicus [19],52.8 min⁻¹
same,Drug response,Rattus norvegicus [20],72%
same,Drug response,Rattus norvegicus [21],22%
same,Drug response,Rattus norvegicus [22],98%
same,Rate response,Rattus norvegicus [23],47.9 min⁻¹
same,No. resp animals / Total,Rattus norvegicus [24],7 / 7
same,Rate response,Rattus norvegicus [25],25.7 min⁻¹
same,No. resp animals / Total,Rattus norvegicus [26],1 / 7
same,Rate response,Rattus norvegicus [27],23.6 min⁻¹
same,No. resp animals / Total,Rattus norvegicus [28],3 / 7
same,Drug response,Rattus norvegicus [29],19%
same,Drug response,Rattus norvegicus [30],40%
same,No. resp animals / Total,Rattus norvegicus [31],7 / 7
same,Drug response,Rattus norvegicus [32],83%
same,No. resp animals / Total,Rattus norvegicus [33],7 / 7
same,Drug response,Rattus norvegicus [34],99%
same,ED50,Rattus norvegicus [35],0.11 mg/kg
same,No. resp animals / Total,Rattus norvegicus [36],7 / 7
same,Rate response,Rattus norvegicus [37],7.7 min⁻¹
same,Rate response,Rattus norvegicus [38],29.6 min⁻¹
same,No. resp animals / Total,Rattus norvegicus [39],7 / 7
same,Rate response,Rattus norvegicus [40],33.5 min⁻¹
same,No. resp animals / Total,Rattus norvegicus [41],7 / 7
same,No. resp animals / Total,Rattus norvegicus [42],7 / 7
same,Drug response,Rattus norvegicus [43],61%
same,Drug response,Rattus norvegicus [44],14%
same,No. resp animals / Total,Rattus norvegicus [45],5 / 5
same,Rate response,Rattus norvegicus [46],26.2 min⁻¹
same,IC50,Rattus norvegicus [1],0.0028 µM
same,Drug response,Rattus norvegicus [47],93%
same,No. resp animals / Total,Rattus norvegicus [48],7 / 7
same,Drug response,Rattus norvegicus [49],100%
same,Rate response,Rattus norvegicus [50],28.3 min⁻¹
same,Drug response,Rattus norvegicus [51],100%

# From ChEMBL document CHEMBL1125558 (J Med Chem, 1992)
